In patent publication US11452758B2, “Antimicrobial peptide derived from LL37 peptide and uses thereof” (INDUSTRY-ACADEMIC COOPERATION FOUNDATION, CHOSUN UNIVERSITY, priority 2018, dated 2022):
Converted amounts (≈) assume the structure as drawn. Where a SMILES comes first, the peptide text is derived from it.

Columns and labels:
A. baumannii #10 = format: cell-based, Acinetobacter baumannii; conditions: #10
Source text: (§1) To compare the antimicrobial activity among the peptides produced by the method of Example 1, the inventors of the present invention measured the minimal growth inhibitory concentration (MIC), which is minimum concentration of the peptide not allowing any […] of bacterial cells.
(§2) Specifically, the bacterial strains described in the following Table 2 were purchased and cultured to a mid-log phase in MHB (Mueller Hinton Broth) medium. Then, after dilution to bacterial cell concentration of 2×10^5 cells/50 μl, the cells were inoculated to a microtiter plate (NUNC, USA). Thereafter, LL37-1, LL37-2, LL37-3 or LL37-4 peptide which has been synthesized in Example 1 above was subjected to serial dilution, ½ times for each, in a 96-well plate. After adding the peptides in an amount of 50 μl to the cell plate, the cells were cultured for 18 hours at 37° C. By using a microtiter plate reader (Merck Elisa reader, Germany), the absorbance was measured at a wavelength of 600 nm to determine the MIC value of each bacterial strain. As a control group, LL37 as a mother peptide was used and subjected to the same process as above to determine the MIC value of each strain.

A. baumannii #2 = format: cell-based, Acinetobacter baumannii; conditions: #2
Source text: as §1, §2

A. baumannii #11 = format: cell-based, Acinetobacter baumannii; conditions: #11
Source text: as §1, §2

A. baumannii #4 = format: cell-based, Acinetobacter baumannii; conditions: #4
Source text: as §1, §2

A. baumannii KCTC 2508 = format: cell-based, Acinetobacter baumannii; conditions: for Minimal inhibitory concentration of antimicrobial peptide: KCTC 2508; for Minimal inhibitory concentration: KCTC 2508, 18 h
Source text: as §1, §2

A. baumannii #19 = format: cell-based, Acinetobacter baumannii; conditions: #19
Source text: as §1, §2

A. baumannii #12 = format: cell-based, Acinetobacter baumannii; conditions: #12
Source text: as §1, §2

A. baumannii #8 = format: cell-based, Acinetobacter baumannii; conditions: #8
Source text: as §1, §2

A. baumannii #13 = format: cell-based, Acinetobacter baumannii; conditions: #13
Source text: as §1, §2

A. baumannii #3 = format: cell-based, Acinetobacter baumannii; conditions: #3
Source text: as §1, §2

A. baumannii #5 = format: cell-based, Acinetobacter baumannii; conditions: #5
Source text: as §1, §2

A. baumannii #9 = format: cell-based, Acinetobacter baumannii; conditions: #9
Source text: as §1, §2

S. aureus ATCC 25923 = format: cell-based, Staphylococcus aureus; conditions: ATCC 25923, 18 h
Source text: as §1, §2

[1] = tested on: Acinetobacter baumannii KCTC 2508; experiment: Flow cytometry after PI staining (bacteria membrane); format: cell-based; conditions: peptide at concentration of MIC, 30 minutes at 37° C.
Description: To determine whether or not the peptides prepared by the method of Example 1 have any effect on bacteria membrane, an analysis was made by flow cytometry.
After that, the supernatant was removed by centrifuge (10,000 rpm) and stained with propidium iodide (PI, concentration of 10 μg/ml) for 30 minutes at 4° C. Thereafter, unbound propidium iodide was removed by centrifuge, and the problem of cell aggregation phenomenon was solved by adding physiological saline (PBS) in an amount of 1 ml.

[2] = Cytotoxicity in normal cell line (MTT); format: cell-based, human; conditions: human
Description: To determine the cytotoxicity of the peptides produced by the method of Example 1 in normal cell line, cytotoxicity was measured by using normal human keratinocyte cell line (HaCaT) and normal human fibroblast cell line (Hs27).
Specifically, normal human keratinocyte (HaCaT) cells and normal human fibroblast (Hs27) cells, which have been cultured in DMEM medium containing 10% FBS (fetal bovine serum), were aliquoted in a microtiter plate to have 1×10^4 cells per well. After culturing them for 24 hours, the cells were subjected to a treatment with LL37, LL37-1, LL37-2, LL37-3 or LL37-4 peptide, each at concentration of 0.5, 1, 2, 4, 8, 16 or 32 μM/well, followed by reaction for 24 hours in a 5% CO2 incubator. After culture, a reaction solution containing 5 mg/ml MTT (Thiazolyl Blue Tetrazolium Bromide) dissolved in phosphate buffered saline (PBS) was added in an amount of 10 μl to each well and the reaction was allowed to occur for 1 hour. After that, the supernatant was discarded, and, by dissolving MTT crystals that are formed by adding 200 μl DMSO (dimethyl sulfoxide), the absorbance at 570 nm was measured to determine the cell survival ability.

[3] = tested on: Acinetobacter baumannii KCTC 2508; experiment: Low vacuum scanning electron microscopy (membrane-disrupting property); format: cell-based; conditions: peptide at MIC concentration, 30 minutes at 37° C.
Description: To specifically determine the degree of antimicrobial activity of the synthesized peptides of the present invention, the influence of mother peptide LL37 and homologous peptides LL37-1, LL37-2, LL37-3 and LL37-4 on bacteria membrane, i.e., membrane-disrupting property, was determined by low vacuum scanning electron microscopy.
Specifically, Acinetobacter baumannii KCTC 2508 cells were cultured to a mid-log phase in MHB medium, and then diluted to a cell concentration of 2×10^7 cells/ml in physiological saline containing 10% MHB medium. […] After that, by using 2.5% glutaraldehyde, the bacterial cells were fixed for 30 minutes at room temperature and then for 12 hours at 4° C. After carrying out washing with buffer, the cells were fixed again with […] and dehydrated in stepwise manner by using ethanol. After the dehydration, platinum coating was carried out and the cells were observed by low vacuum scanning electron microscopy.

[4] = tested on: L. monocytogenes KCTC 3710; format: cell-based, Listeria monocytogenes; conditions: KCTC 3710, 18 h
Source text: as §1, §2

SMILES | Minimal inhibitory concentration (A. baumannii #10) [µM] | Minimal inhibitory concentration (A. baumannii #2) [µM] | Minimal inhibitory concentration (A. baumannii #11) [µM] | Minimal inhibitory concentration (A. baumannii #4) [µM] | Minimal inhibitory concentration of antimicrobial peptide (A. baumannii KCTC 2508) [µM] | Minimal inhibitory concentration (A. baumannii KCTC 2508) [µM] | Minimal inhibitory concentration (A. baumannii #19) [µM] | Minimal inhibitory concentration (A. baumannii #12) [µM] | Minimal inhibitory concentration (A. baumannii #8) [µM] | Minimal inhibitory concentration (A. baumannii #13) [µM] | Minimal inhibitory concentration (A. baumannii #3) [µM] | Minimal inhibitory concentration (A. baumannii #5) [µM] | Minimal inhibitory concentration (A. baumannii #9) [µM] | Minimal inhibitory concentration (S. aureus ATCC 25923) [µM] | effect on bacteria membrane (PI fluorescence, flow cytometry) [1] | viability at 24 h, 0.5 µM ([2]; HaCaT keratinocyte cells) [%] | viability at 24 h, 1 µM ([2]; HaCaT keratinocyte cells) [%] | viability at 24 h, 2 µM ([2]; HaCaT keratinocyte cells) [%] | viability at 24 h, 4 µM ([2]; HaCaT keratinocyte cells) [%] | viability at 24 h, 8 µM ([2]; HaCaT keratinocyte cells) [%] | also measured
CC[C@H](C)[C@H](NC(=O)[C@H](CCCNC(=N)N)NC(=O)[C@H](CCC(N)=O)NC(=O)[C@@H](NC(=O)[C@@H](NC(=O)[C@H](CCCNC(=N)N)NC(=O)[C@H](CCCCN)NC(=O)[C@H](Cc1ccccc1)NC(=O)[C@H](CCCCN)NC(=O)[C@@H](N)CCCCN)[C@@H](C)CC)C(C)C)C(=O)N[C@@H](CCCCN)C(=O)N[C@@H](CCCCN)C(=O)N[C@@H](Cc1ccccc1)C(=O)N[C@@H](CC(C)C)C(=O)N[C@@H](CCCNC(=N)N)C(=O)N[C@@H](CC(N)=O)C(N)=O [LL37-4, KKFKRIVQRIKKFLRN-NH2] (H-KKFKRIVQRIKKFLRN-NH2; N-terminus assumed) | 2 (≈ 4.2 µg/mL) | 2 (≈ 4.2 µg/mL) | 2 (≈ 4.2 µg/mL) | 2 (≈ 4.2 µg/mL) | 4 | 4 (≈ 8.41 µg/mL) | 4 (≈ 8.41 µg/mL) | 2 (≈ 4.2 µg/mL) | 2 (≈ 4.2 µg/mL) | 2 (≈ 4.2 µg/mL) | 2 (≈ 4.2 µg/mL) | 2 (≈ 4.2 µg/mL) | 2 (≈ 4.2 µg/mL) | 2 (≈ 4.2 µg/mL) | bacteria membrane was damaged | 100 | 103 | 97 | 96 | 92 | viability at 24 h, 16 µM ([2]; HaCaT keratinocyte cells): 94%; viability at 24 h, 32 µM ([2]; HaCaT keratinocyte cells): 101%; viability at 24 h, 0.5 µM ([2]; Hs27 fibroblast cells): 94%; viability at 24 h, 1 µM ([2]; Hs27 fibroblast cells): 94%; viability at 24 h, 2 µM ([2]; Hs27 fibroblast cells): 97%; viability at 24 h, 4 µM ([2]; Hs27 fibroblast cells): 90%; viability at 24 h, 8 µM ([2]; Hs27 fibroblast cells): 93%; viability at 24 h, 16 µM ([2]; Hs27 fibroblast cells): 96%; viability at 24 h, 32 µM ([2]; Hs27 fibroblast cells): 93%; membrane disruption compared to LL37-1 and LL37-3 (scanning electron microscopy) [3]: disrupted more; membrane-disrupting property (scanning electron microscopy) [3]: disruption of bacteria membrane; Minimal inhibitory concentration [4]: 16 µM (≈ 33.6 µg/mL)
CC[C@H](C)[C@H](NC(=O)[C@H](CCCCN)NC(=O)[C@H](CCC(=O)O)NC(=O)[C@H](CCCCN)NC(=O)[C@H](CO)NC(=O)[C@H](CCCCN)NC(=O)[C@H](CCCNC(=N)N)NC(=O)[C@H](Cc1ccccc1)NC(=O)[C@H](Cc1ccccc1)NC(=O)[C@H](CC(=O)O)NC(=O)CNC(=O)[C@H](CC(C)C)NC(=O)[C@@H](N)CC(C)C)C(=O)NCC(=O)N[C@@H](CCCCN)C(=O)N[C@@H](CCC(=O)O)C(=O)N[C@@H](Cc1ccccc1)C(=O)N[C@@H](CCCCN)C(=O)N[C@@H](CCCNC(=N)N)C(=O)N[C@H](C(=O)N[C@H](C(=O)N[C@@H](CCC(N)=O)C(=O)N[C@@H](CCCNC(=N)N)C(=O)N[C@H](C(=O)N[C@@H](CCCCN)C(=O)N[C@@H](CC(=O)O)C(=O)N[C@@H](Cc1ccccc1)C(=O)N[C@@H](CC(C)C)C(=O)N[C@@H](CCCNC(=N)N)C(=O)N[C@@H](CC(N)=O)C(=O)N[C@@H](CC(C)C)C(=O)N[C@H](C(=O)N1CCC[C@H]1C(=O)N[C@@H](CCCNC(=N)N)C(=O)N[C@H](C(=O)N[C@@H](CCC(=O)O)C(=O)N[C@@H](CO)C(N)=O)[C@@H](C)O)C(C)C)[C@@H](C)CC)C(C)C)[C@@H](C)CC [LL37] | 2 (≈ 8.98 µg/mL) | 2 (≈ 8.98 µg/mL) | 2 (≈ 8.98 µg/mL) | 2 (≈ 8.98 µg/mL) | 2 | 2 (≈ 8.98 µg/mL) | 2 (≈ 8.98 µg/mL) | 2 (≈ 8.98 µg/mL) | 2 (≈ 8.98 µg/mL) | 2 (≈ 8.98 µg/mL) | 2 (≈ 8.98 µg/mL) | 2 (≈ 8.98 µg/mL) | 2 (≈ 8.98 µg/mL) | 16 (≈ 71.9 µg/mL) | bacteria membrane was damaged | 99 | 99 | 96 | 98 | 99 | viability at 24 h, 16 µM ([2]; HaCaT keratinocyte cells): 83%; viability at 24 h, 32 µM ([2]; HaCaT keratinocyte cells): 17%; viability at 24 h, 0.5 µM ([2]; Hs27 fibroblast cells): 95%; viability at 24 h, 1 µM ([2]; Hs27 fibroblast cells): 90%; viability at 24 h, 2 µM ([2]; Hs27 fibroblast cells): 90%; viability at 24 h, 4 µM ([2]; Hs27 fibroblast cells): 89%; viability at 24 h, 8 µM ([2]; Hs27 fibroblast cells): 90%; viability at 24 h, 16 µM ([2]; Hs27 fibroblast cells): 82%; viability at 24 h, 32 µM ([2]; Hs27 fibroblast cells): 19%; membrane-disrupting property (scanning electron microscopy) [3]: disruption of bacteria membrane; Minimal inhibitory concentration [4]: 64 µM (≈ 288 µg/mL)
